Data on 16 molecules can be found in US9346793B2, “Hydroxylated aminotriazole derivatives as ALX receptor agonists” (Actelion Pharmaceuticals, LTD., priority 2010, dated 2016).

recombinant human ALX receptor (HEK293-hALXR-Gα16 cells), sequence (P25090 whole entry): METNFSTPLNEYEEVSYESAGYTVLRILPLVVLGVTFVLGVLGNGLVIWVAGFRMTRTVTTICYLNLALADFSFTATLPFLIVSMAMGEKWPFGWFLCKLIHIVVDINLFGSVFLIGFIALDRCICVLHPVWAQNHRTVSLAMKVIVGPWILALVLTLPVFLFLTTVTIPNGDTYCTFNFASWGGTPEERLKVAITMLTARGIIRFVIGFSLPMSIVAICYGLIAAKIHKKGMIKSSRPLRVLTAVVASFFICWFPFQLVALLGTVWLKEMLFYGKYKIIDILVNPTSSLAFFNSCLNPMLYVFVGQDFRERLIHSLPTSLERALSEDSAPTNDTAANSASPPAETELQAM

The target of this assay is recombinant human ALX receptor (HEK293-hALXR-Gα16 cells) (Homo sapiens (Human), UniProt P25090). Put plainly: Intracellular calcium measurements (FLIPR), ALX receptor agonistic activity. Particulars: normalized to 10 nM WKYMVm, read-out: EC50 (agonistic activity with respect to the ALX receptor). In kind it is cell-based. The protocol:
The ALX receptor agonistic activity of the compounds of formula (I) is determined in accordance with the following experimental method.
Intracellular Calcium Measurements:
Cells expressing recombinant human ALX receptor and the G-protein Gα16 (HEK293-hALXR-Gα16) were grown to 80% confluency in Growing Medium (GM). Cells were detached from culture dishes with a cell dissociation buffer (Invitrogen, 13151-014), and collected by centrifugation at 1,000 rpm at rt for 5 min in Assay Buffer (AB) (equal parts of Hank's BSS (Gibco, 14065-049) and DMEM without Phenol Red (Gibco, 11880-028)). After 60 min incubation at 37° C. under 5% CO2 in AB supplemented with 1 μM Fluo-4 (AM) (Invitrogen, F14202) and 20 mM HEPES (Gibco, 15630-056), the cells were washed and resuspended in AB. They were then seeded onto 384-well FLIPR assay plates (Greiner, 781091) at 50,000 cells in 70 μl per well and sedimented by centrifugation at 1,000 rpm for 1 min. Stock solutions of test compounds were made up at a concentration of 10 mM in DMSO, and serially diluted in AB to concentrations required for activation dose response curves. WKYMVm (Phoenix Peptides) was used as a reference agonist. A FLIPR Tetra instrument (Molecular Devices) was operated according to the manufacturers standard instructions, adding 4 μl of test compound dissolved at 10 mM in DMSO and diluted prior to the experiment in assay buffer to obtain the desired final concentration. Changes in fluorescence were monitored before and after the addition of test compounds at lex=488 nm and lem=540 nm. Emission peak values above base level after compounds addition were exported after base line subtraction. Values were normalized to high-level control (WKYMVm compound, 10 nM final concentration) after subtraction of the base line value (AB addition).
Turning to `Cc1cccc(-c2oc(C)nc2C(=O)Nc2cnn(Cc3nc(C(C)(C)O)co3)n2)c1` [Example 1, 2-Methyl-5-m-tolyl-oxazole-4-carboxylic acid {2-[4-(1-hydroxy-1-methyl-ethyl)-oxazol-2-ylmethyl]-2H-[1,2,3]triazol-4-yl}-amide], the EC50 was determined as 11.8 nM.

With `Cc1cccc(-c2oc(C)nc2C(=O)Nc2cnn(Cc3nc(C4(O)CC4)co3)n2)c1` [Example 2, 2-Methyl-5-m-tolyl-oxazole-4-carboxylic acid {2-[4-(1-hydroxy-cyclopropyl)-oxazol-2-ylmethyl]-2H-[1,2,3]triazol-4-yl}-amide], the EC50 amounted to 7.6 nM.

Turning to `CC(C)(O)c1coc(Cn2ncc(NC(=O)c3ncoc3-c3ccccc3)n2)n1` [Example 3, 5-Phenyl-oxazole-4-carboxylic acid {2-[4-(1-hydroxy-1-methyl-ethyl)-oxazol-2-ylmethyl]-2H-[1,2,3]triazol-4-yl}-amide], the concentration giving a half-maximal response (EC50) was determined as 8 nM.

As to `CC(C)(O)c1coc(Cn2ncc(NC(=O)c3ncoc3-c3ccc(F)cc3)n2)n1` [Example 4, 5-(4-Fluoro-phenyl)-oxazole-4-carboxylic acid {2-[4-(1-hydroxy-1-methyl-ethyl)-oxazol-2-ylmethyl]-2H-[1,2,3]triazol-4-yl}-amide], the 50% effective concentration (EC50) amounted to 51 nM.

On to `Cc1nc(C(=O)Nc2cnn(Cc3nc(C(C)(C)O)co3)n2)c(-c2cccc(C(F)(F)F)c2)o1` [Example 5, 2-Methyl-5-(3-trifluoromethyl-phenyl)-oxazole-4-carboxylic acid {2-[4-(1-hydroxy-1-methyl-ethyl)-oxazol-2-ylmethyl]-2H-[1,2,3]triazol-4-yl}-amide], for which the half-maximal effective concentration (EC50) turned out to be 21.7 nM.

As to `COc1cccc(-c2oc(C)nc2C(=O)Nc2cnn(Cc3nc(C(C)(C)O)co3)n2)c1` [Example 6, 5-(3-Methoxy-phenyl)-2-methyl-oxazole-4-carboxylic acid {2-[4-(1-hydroxy-1-methyl-ethyl)-oxazol-2-ylmethyl]-2H-[1,2,3]triazol-4-yl}-amide], the concentration giving a half-maximal response (EC50) was found to be 12.7 nM.

In the case of `Cc1nc(C(=O)Nc2cnn(Cc3nc(C(C)(C)O)co3)n2)c(-c2cccc(Cl)c2)o1` [Example 7, 5-(3-Chloro-phenyl)-2-methyl-oxazole-4-carboxylic acid {2-[4-(1-hydroxy-1-methyl-ethyl)-oxazol-2-ylmethyl]-2H-[1,2,3]triazol-4-yl}-amide], the half-maximal effective concentration (EC50) worked out at 10.1 nM.

Regarding `CC(C)(O)c1coc(Cn2ncc(NC(=O)c3ncoc3-c3cccc(Cl)c3)n2)n1` [Example 8, 5-(3-Chloro-phenyl)-oxazole-4-carboxylic acid {2-[4-(1-hydroxy-1-methyl-ethyl)-oxazol-2-ylmethyl]-2H-[1,2,3]triazol-4-yl}-amide], the concentration giving a half-maximal response (EC50) amounted to 17.8 nM.

In the case of `COc1cccc(-c2ocnc2C(=O)Nc2cnn(Cc3nc(C(C)(C)O)co3)n2)c1` [Example 9, 5-(3-Methoxy-phenyl)-oxazole-4-carboxylic acid {2-[4-(1-hydroxy-1-methyl-ethyl)-oxazol-2-ylmethyl]-2H-[1,2,3]triazol-4-yl}-amide], the EC50 stood at 17.2 nM.

For `Cc1nc(C(=O)Nc2cnn(Cc3nc(C(C)(C)O)co3)n2)c(-c2ccccc2)o1` [Example 10, 2-Methyl-5-phenyl-oxazole-4-carboxylic acid {2-[4-(1-hydroxy-1-methyl-ethyl)-oxazol-2-ylmethyl]-2H-[1,2,3]triazol-4-yl}-amide], the concentration giving a half-maximal response (EC50) was determined as 10.3 nM.

Take `CC(C)(O)c1coc(Cn2ncc(NC(=O)c3ncsc3-c3cccc(F)c3)n2)n1` [Example 11, 5-(3-Fluoro-phenyl)-thiazole-4-carboxylic acid {2-[4-(1-hydroxy-1-methyl-ethyl)-oxazol-2-ylmethyl]-2H-[1,2,3]triazol-4-yl}-amide]: the EC50 is 82.3 nM.

In the case of `Cc1nc(C(=O)Nc2cnn(Cc3nc(C(C)(C)O)co3)n2)c(-c2cccc(OC(F)(F)F)c2)o1` [Example 12, 2-Methyl-5-(3-trifluoromethoxy-phenyl)-oxazole-4-carboxylic acid {2-[4-(1-hydroxy-1-methyl-ethyl)-oxazol-2-ylmethyl]-2H-[1,2,3]triazol-4-yl}-amide], the EC50 came to 32.3 nM.

As to `Cc1nc(C(=O)Nc2cnn(Cc3nc(C(C)(C)O)co3)n2)c(-c2cccc(F)c2)o1` [Example 13, 5-(3-Fluoro-phenyl)-2-methyl-oxazole-4-carboxylic acid {2-[4-(1-hydroxy-1-methyl-ethyl)-oxazol-2-ylmethyl]-2H-[1,2,3]triazol-4-yl}-amide], the EC50 was determined as 13.2 nM.

As to `Cc1cccc(-c2ocnc2C(=O)Nc2cnn(Cc3nc(C(C)(C)O)co3)n2)c1` [Example 14, 5-m-Tolyl-oxazole-4-carboxylic acid {2-[4-(1-hydroxy-1-methyl-ethyl)-oxazol-2-ylmethyl]-2H-[1,2,3]triazol-4-yl}-amide], the EC50 was 11.3 nM.

Consider `Cc1cccc(-c2oc(C3CC3)nc2C(=O)Nc2cnn(Cc3nc(C(C)(C)O)co3)n2)c1` [Example 15, 2-Cyclopropyl-5-m-tolyl-oxazole-4-carboxylic acid {2-[4-(1-hydroxy-1-methyl-ethyl)-oxazol-2-ylmethyl]-2H-[1,2,3]triazol-4-yl}-amide], for which the half-maximal effective concentration (EC50) was 52.9 nM.

For the molecule `Cc1cccc(-c2oc(C)nc2C(=O)Nc2cnn(Cc3nc(C(C)(C)O)cs3)n2)c1` [N-(2-((4-(2-Hydroxypropan-2-yl)thiazol-2-yl)methyl)-2H-1,2,3-triazol-4-yl)-2-methyl-5-(m-tolyl)oxazole-4-carboxamide, reference compound], the EC50 came to 245 nM.
